Reference: US20260364030A1, “NOVEL SELECTIVE INHIBITORS OF LYSYL OXIDASES” (Syntara Limited, priority 2022, published 2026)

How the values were obtained:
skin fibrosis = assay: Mouse model of sclerosis (bleomycin-induced skin fibrosis); assay type: in vivo, male C57BL/6 mouse; settings: topical formulation, various concentrations, from day 3; histology after 21 days; FIG. 3, ****=P≤0.0001
Experimental: Subcutaneous bleomycin (0.1 U/kg) was administered every second day (for 21 days total) to male C57BL/6 to induce skin fibrosis as a model of sclerosis. The lesions were treated, from day 3, with either Vehicle or various concentrations of Compound 1 in a topical formulation. Histology was completed after 21 days.

[1] = Diffusion through human skin, Franz diffusion cell; assay type: in vitro ADME; settings: topical formulation containing 2% Compound 1
Source text: Skin permeability is essential when considering topical application to treat skin conditions. One way to evaluate skin permeability is to use a Franz diffusion cell system with human skin as a membrane (Particle Sciences; Technical Brief 2009; Vol. 10). The donor compound (Compound 1), topically formulated, is applied on the top chamber and diffusion through the skin is monitored at relevant time points by sampling the solution in the receptor chamber via the sampling port. The concentration of Compound 1 was determined by quantitative HPLC analysis.

[2] = Solubility and stability of test item in DMSO vehicle; assay type: physicochemical; settings: for Stability in vehicle DMSO: at 20 μg/mL and 50000 μg/mL
Experimental: The test item was soluble in DMSO at 50 mg/mL and was used as the vehicle of choice in the mutation assay.

[3] = test system: SSAO/VAP-1, MAO-B, MAO-A and DAO; assay: Selectivity with respect to other amine oxidases; assay type: biochemical, human
Experimental: Human recombinant SSAO/VAP-1 amine oxidase activity was determined using the coupled colorimetric method as described for monoamine oxidase, copper-containing amine oxidases and related enzymes [Holt A. and Palcic M., 2006]. Briefly, a cloned cDNA template corresponding to residues 34-763 of human SSAO/VAP-1, and incorporating a mouse Ig kappa (κ) signal sequence, N-terminal flag epitope tag and tobacco etch virus (TEV) cleavage site, was assembled in a mammalian expression vector (pLO-CMV) by Geneart AG. This vector containing human SSAO/VAP-1 residues was transfected into CHO-K1 glycosylation mutant cell line, Lee 8. A clone stably expressing human SSAO/VAP-1 was isolated and cultured in large scale. Active human SSAO/VAP-1 was purified and recovered using immunoaffinity chromatography. This was used as the source for SSAO/VAP-1 activity. A high-throughput fluorescent assay was developed using either 96 or 384 well format. Briefly, in a standard 384 well plate assay 25 μL of purified human SSAO/VAP-1 (0.25 μg/mL) in 0.1 M sodium phophate buffer (pH 7.4) was added into each well. […] The fluorescence unit (RFU) was read every 2.5 min for 30 min at 37 °C excitation 544 nm and emission 590 (Optima; BMG labtech). The slope/min of the kinetics for each well was calculated using MARS data analysis software (BMG labtech) and this value was used to deduce the IC50 value (Dotmatics). […]

[4] = test system: Salmonella typhimurium TA100; assay: Bacterial reverse mutation test, preliminary toxicity test (direct plate incorporation)
Experimental: In the preliminary toxicity test, for selection of test doses for the mutation assay, Salmonella typhimurium, TA100 was exposed to the test item at 39.0625, 78.125, 156.25, 312.5, 625, 1250, 2500 and 5000 μg/plate along with a DMSO control using direct plate incorporation.

[5] = test system: TA98, TA100, TA1535 and TA1537 strains of Salmonella typhimurium and WP2uvrA (pKM101) strain of Escherichia coli; assay: Bacterial Reverse Mutation Test, initial and confirmatory mutation assay
Experimental: The test item Compound 1 was tested for its mutagenic potential in the bacterial reverse mutation assay. The study was conducted using TA98, TA100, TA1535 and TA1537 strains of Salmonella typhimurium and WP2uvrA (pKM101) strain of Escherichia coli in three phases; a preliminary toxicity test, an initial mutation assay and a confirmatory mutation assay. The bacterial tester strains were exposed to the test item in the presence and absence of metabolic activation system (S9 fraction prepared from Aroclor 1254 induced rat liver).
The bacterial tester strains were exposed to the test item in triplicate at 50, 158, 500, 1581 and 5000 μg/plate. The initial mutation assay was conducted using the direct plate incorporation mode of exposure whereas the confirmatory mutation assay was carried out using the pre-incubation mode of exposure. The vehicle control (DMSO) and the appropriate positive controls were tested simultaneously. The mean and standard deviation of numbers of revertant colonies were calculated for each test dose and the controls for all the tester strains.

systemic LOX = settings: mouse, in vivo; cited from earlier work
desmoplastic tumour = settings: mouse, in vivo; cited from earlier work
LOX = settings: CIA rats; cited from earlier work
[6] = human patients with scleroderma; cited from earlier work
[7] = test system: SiHa cervical cancer cells; settings: in vitro, hypoxic/anoxic conditions; cited from earlier work

Row | Structure (SMILES) | Average collagen score (histology) (skin fibrosis) | Level in the receptor chamber ([1]; after 24 hours (FIG. 2)) | Permeability and diffusion through human skin ([1]; time dependent (FIG. 2)) | solubility ([2]; dmso, organic solvent or mixture) | Stability in vehicle DMSO ([2]; refrigerated temperature) | Stability in vehicle DMSO ([2]; room temperature) | Selectivity for LOX family with respect to SSAO/VAP-1, MAO-B, MAO-A and DAO [3] | Toxicity to the tester strain (bacterial background lawn, revertant colony counts) ([4]; 39.0625-5000 μg/plate, presence and absence of metabolic activation) | Precipitation on the basal agar plates ([4]; up to 5000 μg/plate, presence or absence of metabolic activation) | Mutagenic increase in revertant colonies ([5]; 50-5000 μg/plate, with and without metabolic activation (S9), initial and confirmatory assay, all tester strains) | Mutagenicity ([5]; up to the top dose 5000 μg/plate) | Metastasis and survival (systemic LOX) | Metastatic load and survival (desmoplastic tumour) | Effect on inflammation, synovial hyperplasia, angiogenesis, MMP-2 and MMP-9 expression (LOX) | Tolerability [6] | Invasion of SiHa cells [7]
1 | NC/C(=C\F)CS(=O)(=O)c1ccccc1 [Compound 1, (E)-3-fluoro-2-((phenylsulfonyl)methyl)prop-2-en-1-amine] | significant improvement in the average collagen score | high levels | good permeability and diffusion | ≥ 50 mg/mL | ≥ 4 days | ≥ 0.25 days | selectively inhibit members of the LOX family of enzymes | did not exhibit toxicity to the tester strain | did not precipitate on the basal agar plates | did not show any positive mutagenic increase | not mutagenic | – | – | – | – | –
2 | N#CCCN [BAPN, β-aminopropionitrile, reference compound] | – | – | – | – | – | – | – | – | – | – | – | reducing metastasis and increasing survival | lower metastatic load and increased survival | attenuate inflammation, synovial hyperplasia, angiogenesis and expression of MMP-2 and MMP-9 | poorly tolerated | repressed
